Data taken from ChEMBL document CHEMBL1158123, “Rubrisandrins A and B, lignans and related anti-HIV compounds from Schisandra rubriflora” (J Nat Prod, 2006).
Calls of active or inactive are those of the source. No cut-off for these calls is given here.

Tests used:
[1] = tested on: H9; assay: Cytotoxicity against human H9 cells after 4 days; assay type: cell-based; settings: H9, 96 h
[2] = tested on: Human immunodeficiency virus 1; assay: Antiviral activity against HIV1 3B in H9 cells after 4 days by p24-antigen ELISA; assay type: functional, organism-based; settings: for EC50: Human immunodeficiency virus 1, 3B, H9, 96 h
[3] = Therapeutic index, ratio of IC50 for human H9 cells to EC50 for HIV1 3B; assay type: cell-based; settings: read-out: Ratio IC50/EC50

Compound | IC50 [1] [µM] | EC50 [2] [µM] | selectivity ratio [3] | Activity [2]
COc1cc2c(c(OC)c1OC)-c1c(cc3c(c1O)OCO3)C[C@H](C)[C@H](C)C2 | 47.1 | 2.4 | 19.4 | 
COc1cc2c(c(O)c1OC)-c1c(cc3c(c1OC)OCO3)C[C@H](C)[C@H](C)C2 (racemic) | 44.5 | < 0.65 | > 68 | 
C/C=C(/C)C(=O)O[C@@H]1c2cc(OC)c(OC)c(OC)c2-c2c(cc3c(c2OC)OCO3)C[C@H](C)[C@@]1(C)O [ANGELOYLGOMISIN P] | > 49 |  |  | inactive
COc1cc2c(c(OC)c1OC)-c1c(cc(OC)c(OC)c1OC)C[C@H](C)[C@@H](C)C2 [DEOXYSCHISANDRIN] | > 60 |  |  | inactive
COc1cc2c(c(O)c1OC)-c1c(cc(OC)c(OC)c1OC)C[C@@H](C)[C@@H](C)C2 [SCHISANHENOL] | 42 | 5.7 | 7.4 | 
C/C=C(/C)C(=O)O[C@H]1c2cc(OC)c(OC)c(OC)c2-c2c(cc3c(c2OC)OCO3)C[C@H](C)[C@]1(C)O [SCHISANTHERIN B] | > 49 | 40 | 1.2 | 
COc1cc2c(c(OC)c1OC)-c1c(cc(OC)c(OC)c1OC)C[C@](C)(O)[C@@H](C)C2 [SCHIZANDRIN] | > 58 |  |  | inactive
C/C=C(\C)C(=O)O[C@@H]1c2cc(OC)c(OC)c(OC)c2-c2c(cc3c(c2OC)OCO3)C[C@H](C)[C@@]1(C)O [TIGLOYLGOMISIN P] | > 49 | 37 | 1.3 | 
Cc1cn([C@H]2C[C@H](N=[N+]=[N-])[C@@H](CO)O2)c(=O)[nH]c1=O [ZIDOVUDINE] |  | 0.023 |  | 
